“And” between values parts separate entries of the source, which are not always exact repeats. Equal values may be shown once. Read-outs that look alike come from different tables or passages of the source.
How the values were obtained:
[1] = Brain-to-plasma ratio after intraperitoneal administration in male CD-1 mice (LC-MS/MS of plasma and brain homogenate); assay type: in vivo; conditions: for Kp at 1 h / Kp at 3 h / concentration at 1 h / concentration at 3 h: male, CD-1, mouse, ip; for Kp at 1 h / Kp at 3 h: brain/plasma
Method: (§1) In this study, the brain-to-plasma ratio of compounds of the invention was evaluated after intraperitoneal dosing in fasted male CD-1 mice. Test compounds were dosed at 50 mg/kg in sterile water for injection. Plasma and brain homogenate levels were determined at 1 and 3 hours post dose by LC-MS/MS. […] Penetration of the present compounds through the blood-brain barrier allows the compounds to exerts their receptor binding activity to achieve the therapeutic effects.
All data are expressed as ng/mL (equivalent to ng/g for calculation of brain:plasma ratio) of the free drug. Samples that were below the limit of quantitation were not used in the calculation of averages.
Brain-to-plasma ratios were determined by dividing the brain concentration in ng/g by the plasma concentration in ng/g.
Brain samples were homogenized with a Virsonic 100 ultrasonic homogenizer. Each brain sample was first weighed, and then an appropriate volume of 20:80 methanol:water was added to make a 4 mL/1 gram sample. Samples were then homogenized on ice, and stored frozen until analysis.
Standards samples were prepared in either CD-1 Mouse plasma containing K2EDTA as an anticoagulant or CD-1 mouse brain homogenate. Working solutions (200 μg/mL and/or 20 μg/mL for each test compound) was prepared in 50:50 ACN:water. Then, a nine-point calibration curve was prepared at concentrations of 2000, 1500, 1000, 500, 100, 50, 20, 10, and 5 ng/mL of each test compound by serial dilution; or for a high-sensitivity method, another nine point calibration curve was prepared at concentrations of 200, 150, 100, 50, 10, 5, 2, 1, and 0.5 ng/mL of each test compound by serial dilution. Standard samples were treated identically to the study samples.
Plasma and brain homogenate samples were extracted via acetonitrile precipitation on a Tomtec Quadra 96-Model 320 liquid handling system in a 96-well plate format.
HPLC Conditions • Instrument: Perkin Elmer series 200 micropumps and Autosampler • Column: Phenomenex Synergi Polar-RP, 4μ, 80A, 50×2.0 mm • Mobile Phase Buffer: 40 mM ammonium formate, pH 3.5 • Aqueous Reservoir (A): 10% buffer, 90% water • Organic Reservoir (B): 10% buffer, 90% acetonitrile • Gradient Program:
• Flow Rate: 400 μL/min • Injection Volume: […], • Run Time: 5.0 min • Column Temperature: ambient • Autosampler Wash Solution #1: ACN:IPA:H2O 40:30:30 (v/v/v) w/0.2% formic acid • Autosampler Wash Solution #2: MeOH:H2O 50:50 (v/v) Mass Spectrometer Conditions (for Calibration Curve from 5 to 2000 ng/mL) • Instrument: PE Sciex API 4000 • Interface: Electrospray (“Turbo Ion Spray”) • Mode: Multiple Reaction Monitoring (MRM) • Gases: CUR 20, GS1 20, GS2 10, CAD Medium, IS 5200 • Source Temperature: 500° C., ihe OFF • Voltages and Ions Monitored*:
Mass Spectrometer Conditions (for Calibration Curve from 0.5 to 200 ng/mL, High Sensitivity Method) • Instrument: PE Sciex API 4000 Q TRAP • Interface: Electrospray (“Turbo Ion Spray”) • Mode: Multiple Reaction Monitoring (MRM) • Gases: CUR 20, GS1 20, GS2 10, CAD Medium, IS 5200 • Source Temperature: 500° C., ihe OFF • Voltages and Ions Monitored*: […]

[2] = Observations and adverse reactions after intraperitoneal administration in CD-1 mice; assay type: in vivo; conditions: IP 50 mg/kg
Method: as §1

[3] = 1.0 hr after IP dosing at 50 mg/kg, individual fasted male CD-1 mice, 50 mg/kg
[4] = 1.0 hr after IP dosing at 50 mg/kg, individual mice, 50 mg/kg
[5] = 1.0 hr after IP dosing at 50 mg/kg, mean of mice, 50 mg/kg
[6] = 3.0 hr after IP dosing at 50 mg/kg, individual fasted male CD-1 mice, BLQ = below 0.5 ng/mL, 50 mg/kg
[7] = 3.0 hr after IP dosing at 50 mg/kg, individual mice, 50 mg/kg
[8] = 50 mg/kg, 1.0 hr after IP dosing at 50 mg/kg, mean of mice, read-out: Average B:P Ratio
[9] = 50 mg/kg, 3.0 hr after IP dosing at 50 mg/kg, individual mice, read-out: B:P Ratio
[10] = 50 mg/kg, 3.0 hr after IP dosing at 50 mg/kg, mean of mice (Compound-3: one animal only), read-out: Average B:P Ratio
[11] = plasma, 50 mg/kg, 1.0 hr after IP dosing at 50 mg/kg, individual mice, read-out: Plasma Conc

| Brain Tissue Homogen. Conc [1, 3] | B:P Ratio [1, 4] | Brain Tissue Conc [1, 4] | Plasma Conc [1, 4] | Average B:P Ratio [1, 5] | Brain Tissue Homogen. Conc [1, 6] | Plasma Conc [1, 7] | Kp at 1 h [1, 8] | Kp at 3 h [1, 9] | Kp at 3 h [1, 10] | concentration at 1 h [1, 11] [ng/mL] | Compound | Adverse effects after intraperitoneal administration [2] | further results |
| --- | --- | --- | --- | --- | --- | --- | --- | --- | --- | --- | --- | --- | --- |
| 41.6 µg/mL and 122 µg/mL and 25.2 µg/mL | 0.58 and 0.99 and 0.34 | 208 µg/mL and 610 µg/mL and 126 µg/mL | 614 ng/mL and 369 ng/mL | 0.638 | 26.3 µg/mL and 12.2 µg/mL and 6.22 µg/mL | 202 ng/mL and 108 ng/mL and 63.1 ng/mL | 0.638 ± 0.33 | 0.65 | 0.57 ± 0.079 | 359 | COCCN(CCOC)c1ccc(C(C)c2ccc(N(CCOC)CCOC)cc2)cc1 [Compound-2, 4,4′-(ethane-1,1-diyl)bis(N,N-bis(2-methoxyethyl)aniline)] | No adverse effects were observed | B:P Ratio [1, 7]: 0.56 and 0.49; Brain Tissue Conc [1, 7]: 132 µg/mL and 61.0 µg/mL and 31.1 µg/mL; Average B:P Ratio ([1]; 3.0 hr after IP dosing at 50 mg/kg, mean of mice (Compound-3: one animal only), 50 mg/kg): 0.570 |
| 2.87 µg/mL and 2.24 µg/mL | 0.27 and 0.36 | 14.4 µg/mL and 11.2 µg/mL | 52.6 ng/mL and 30.9 ng/mL | 0.328 | BLQ | 2.02 ng/mL and 1.67 ng/mL | 0.328 ± 0.048 | 1.14 | 1.14 | 31.8 | CC(c1ccc(N(CCO)CCO)cc1)c1ccc(N(CCO)CCO)cc1 [Compound-3, 2,2′,2″,2′″-((ethane-1,1-diylbis(4,1-phenylene))bis(azanetriyl))-tetraethanol] | No adverse effects were observed | Average B:P Ratio ([1]; 3.0 hr after IP dosing at 50 mg/kg, mean of mice (Compound-3: one animal only)): 1.14; concentration at 1 h ([1]; brain homogenate, 50 mg/kg, 1.0 hr after IP dosing at 50 mg/kg, individual fasted male CD-1 mice, read-out: Brain Tissue Homogen. Conc): 2210 ng/mL; concentration at 3 h ([1]; brain homogenate, 50 mg/kg, 3.0 hr after IP dosing at 50 mg/kg, individual fasted male CD-1 mice, BLQ = below 0.5 ng/mL, read-out: Brain Tissue Homogen. Conc): 611 ng/mL; concentration at 1 h ([1]; brain, 50 mg/kg, 1.0 hr after IP dosing at 50 mg/kg, individual mice, read-out: Brain Tissue Conc): 11100 ng/mL; concentration at 3 h ([1]; brain, 50 mg/kg, 3.0 hr after IP dosing at 50 mg/kg, individual mice, read-out: Brain Tissue Conc): 3060 ng/mL; Kp at 1 h ([1]; 50 mg/kg, 1.0 hr after IP dosing at 50 mg/kg, individual mice, read-out: B:P Ratio): 0.35; concentration at 3 h ([1]; plasma, 50 mg/kg, 3.0 hr after IP dosing at 50 mg/kg, individual mice, read-out: Plasma Conc): 2.67 ng/mL |

From patent publication US9828330B2, “Non-peptide BDNF neurotrophin mimetics” (PHARMATROPHIX, INC., priority 2013, dated 2017)
